According to patent US12459926B2, “THRβ receptor agonist compound and preparation method and use thereof” (Terns, Inc., priority 2018, dated 2025):

What was measured:
TRβ LBD = TRβ LBD (Homo sapiens, UniProt P10828); conditions: ratio of THRα to THRβ binding force
[1] = Pharmacokinetic evaluation in rats after intragastric infusion; format: in vivo; conditions: male SD rats, 2 mg/kg single dose, plasma

Chain of TRβ LBD (P10828 217-461 limits assumed, other chains not shown): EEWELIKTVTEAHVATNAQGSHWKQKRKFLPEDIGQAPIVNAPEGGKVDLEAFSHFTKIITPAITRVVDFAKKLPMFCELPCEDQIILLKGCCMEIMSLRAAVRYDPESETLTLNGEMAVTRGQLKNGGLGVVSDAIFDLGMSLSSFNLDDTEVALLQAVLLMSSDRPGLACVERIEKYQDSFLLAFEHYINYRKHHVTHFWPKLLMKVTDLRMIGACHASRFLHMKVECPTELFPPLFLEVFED
Chain of TRβ LBD (P28702 whole entry partner, other chains not shown, the tested form may be a part): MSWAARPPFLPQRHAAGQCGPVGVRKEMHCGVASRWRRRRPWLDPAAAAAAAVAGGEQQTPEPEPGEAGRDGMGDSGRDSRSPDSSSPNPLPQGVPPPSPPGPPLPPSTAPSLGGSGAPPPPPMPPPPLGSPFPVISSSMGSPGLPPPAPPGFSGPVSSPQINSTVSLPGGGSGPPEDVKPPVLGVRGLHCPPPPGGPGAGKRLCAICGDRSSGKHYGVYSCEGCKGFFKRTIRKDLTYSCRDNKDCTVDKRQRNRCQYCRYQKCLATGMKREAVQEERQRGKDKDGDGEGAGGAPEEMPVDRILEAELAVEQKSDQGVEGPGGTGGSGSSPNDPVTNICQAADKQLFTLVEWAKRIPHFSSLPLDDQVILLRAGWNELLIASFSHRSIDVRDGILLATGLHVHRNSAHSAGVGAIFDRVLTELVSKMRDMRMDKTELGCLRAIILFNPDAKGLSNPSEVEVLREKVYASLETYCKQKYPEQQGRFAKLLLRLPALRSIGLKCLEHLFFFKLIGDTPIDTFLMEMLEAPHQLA

Row | Curve area [1] | Time to peak [1] | half-life ([1]; rat, po) | SMILES | THRα/β selectivity (factor) (TRβ LBD)
1 | – | – | – | N#Cc1nn(-c2cc(Cl)c(Oc3n[nH]c(=O)c4c3CCCC4)c(Cl)c2)c(=O)[nH]c1=O [Embodiment 1, 2-(3,5-dichloro-4-((4-oxo-3,4,5,6,7,8-hexahydrophthalazin-1-yl)oxy)phenyl)-3,5-dioxo-2,3,4,5-tetrahydro-1,2,4-triazine-6-nitrile] | >8.1 factor
2 | 9.242 ± 1.245 µg·h/mL | 5.33 ± 1.15 h | 5.14 ± 0.83 h | CC1(C)CCc2c(Oc3c(Cl)cc(-n4nc(C#N)c(=O)[nH]c4=O)cc3Cl)n[nH]c(=O)c21 [Embodiment 4, 2-(3,5-dichloro-4-((7,7-dimethyl-1-oxo-2,5,6,7-tetrahydro-1H-cyclopenta[d]pyridazin-4-yl)oxy)phenyl)-3,5-dioxo-2,3,4,5-tetrahydro-1,2,4-triazine-6-carbonitrile] | –
3 | – | – | – | N#Cc1nn(-c2cc(Cl)c(Oc3n[nH]c(=O)c4c(Cl)cccc34)c(Cl)c2)c(=O)[nH]c1=O [Embodiment 10, 2-(3,5-dichloro-4-((5-chloro-4-oxo-3,4-dihydrophthalazin-1-yl)oxo)phenyl)-3,5-dioxo-2,3,4,5-tetrahydro-1,2,4-triazine-6-nitrile] | >6.80 factor
4 | – | – | – | N#Cc1nn(-c2cc(Cl)c(Oc3n[nH]c(=O)c4ccccc34)c(Cl)c2)c(=O)[nH]c1=O [Embodiment 9, 2-(3,5-dichloro-4-((4-oxo-3,4-dihydrophthalazin-1-yl)oxo)phenyl)-3,5-dioxo-2,3,4,5-tetrahydro-1,2,4-triazine-6-nitrile] | >58.8 factor
